SMILES strings stand for the structures.

The series in a line: Colour measurement (yellowing) of liquid laundry compositions comprising DHA. The format is physicochemical. To be noted: added to laundry liquid comprising DHA salt.

On to `O=S([O-])[O-].[K+].[K+]` [sulphite, Potassium Sulfite], for which the effect on yellowing entry is reported as “reduces yellowing”.

The values are drawn from patent US20240110130A1, “COMPOSITION” (Conopco, Inc., d/b/a UNILEVER, priority 2021, published 2024).
